The results in this text go back to patent publication US20120238532A1, “TREATMENT OF HUMAN OSTEOSARCOMA” (CEDARS-SINAI MEDICAL CENTER, priority 2009, published 2012).

Data set [1] relates to cyclin A and cyclin-dependent kinase inhibitor 1 (p21^WAF1). Kind of data set: Western blotting, cyclin A and p21^WAF1. The data set is classed as cell-based, human. The conditions noted are these: MG-63 and SAOS-2 cells. How it is done:
(§1) Changes in protein level by CuB were checked by Western blotting. […] After 2, 9, and 20 hours of exposure, cells were harvested and immediately lysed with RIPA buffer (Millipore—Upstate, Temecula, Calif.) supplemented with protease inhibitor cocktail (Roche, San Francisco, Calif.), 0.5 mM PMSF (Roche), and 50 mM NaF (Sigma). After 20 minutes of incubation on ice, protein concentrations were measured by Bradford assay with Bio Rad protein assay solution (Bio-Rad, Hercules, Calif.) and samples were adjusted to the same protein concentration. Samples were mixed with 2× Laemmli sample buffer (Bio-Rad) with 5% β-mercaptoethanol (Sigma) and incubated at 95° C. for 10 min to denature the protein. After brief incubation on ice, proteins were separated by SDS-PAGE, transferred to nitrocellulose membrane (Sigma), and blotted with antibodies from either Cell Signaling Technology (Danvers, Mass.) or Santa Cruz Biotechnology (Santa Cruz, Calif.). Target proteins were visualized by Supersignal West Dura Substrate (Thermo-Pierce, Rockford, Ill.). GAPDH protein was used as a loading control.
For orientation: Immunoblotting shows a protein as a band on a membrane.

Data set [2] has as its system MG-63 cells. As to the kind of experiment: Annexin V-FITC apoptosis assay, MG-63. The data set is classed as cell-based, human. The conditions noted are these: at ED50, 72 hours of exposure. As to the method:
Cells were harvested and fixed with 70% ethanol at regular time intervals. Fixed cells were stained with propidium iodide (PI) for flow cytometry analysis using BD FACScan (BD Biosciences, San Jose, Calif.). Distribution of cell cycle was analyzed by ModFit LT V2.0 software (Verity Software House, Topsham, Me.). […] After 24, 48, and 72 hours of exposure, cells were harvested and stained with PI and fluorescein isothiocyanate (FITC) using Annexin V-FITC apoptosis detection kit (BD Biosciences) according to the manufacturer's protocol. Cells were subjected to flow cytometry analysis within one hour of staining.

A short description of data set [3]: Body weight and side-effects during xenograft treatment. The data set is classed as in vivo, mice. The conditions noted are these: week 1, returned to normal in subsequent weeks. How it is done: All animal experiments strictly followed the guidelines of Cedars-Sinai Medical Center and the National Institute of Health (NIH). Female nu/nu athymic nude mice (5-6 weeks old; average weight 21 g; specific pathogen-free) from Harlan Laboratories (Indianapolis, Ind.) were maintained in pathogen-free condition with sterilized chow and water. 5×10^6 cells of MG-63 cells were mixed with 200 μl of Matrigel solution (BD Biosciences) per injection, and the mixture was injected subcutaneously on the upper flanks of nude mice. After 24 hours, tumor size was measured, and any outliers were ruled out by one-way analysis of variance (ANOVA) test. […] The dose of LD-MTX was the murine equivalent of the human dose of LD-MTX. The conversion was made using dose translation formula by Reagan-Shaw et al., (15). […] Body weights were monitored every 2 days. Tumor size was measured every 2 days, and the tumor volume was calculated using the following formula: A (length)×B (width)×C (height)×0.5236 (16). The experiment was stopped at day 35, and all mice were sacrificed. The presence of metastatic spread was examined macroscopically at the time of autopsy followed by histological examination. At least two tumors from each group were snap-frozen in liquid nitrogen for Western blotting.

The target in data set [4] is T1, ERK protein (Homo sapiens, UniProt P28482).
T1 construct: confluent MG-63 cells were harvested and lysed with lysis buffer; endogenous in cells; host or cells: MG-63 whole-cell lysate
T1 sequence (P28482 2-360 limits assumed): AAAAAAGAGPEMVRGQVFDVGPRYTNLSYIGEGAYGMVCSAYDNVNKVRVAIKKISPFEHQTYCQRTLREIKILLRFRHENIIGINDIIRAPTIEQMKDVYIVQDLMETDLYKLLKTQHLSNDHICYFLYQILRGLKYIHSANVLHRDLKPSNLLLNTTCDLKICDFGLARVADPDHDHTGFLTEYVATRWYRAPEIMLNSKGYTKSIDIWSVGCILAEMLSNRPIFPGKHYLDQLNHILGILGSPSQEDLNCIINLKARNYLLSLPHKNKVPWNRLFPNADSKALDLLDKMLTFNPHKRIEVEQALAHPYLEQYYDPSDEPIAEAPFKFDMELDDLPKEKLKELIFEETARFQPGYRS
As to the kind of experiment: DARTS analysis, ERK. The data set is classed as binding. The conditions noted are these: MG-63 lysates; data not shown.

Data set [5] can be described thus: Organ weight in mice. The data set is classed as in vivo. The conditions noted are these: day 35. An excerpt: At autopsy, tumors and internal organs including liver, spleen, kidneys were excised, weighed, and then fixed in 10% PBS-buffered formalin and maintained in 70% ethanol. For IHC, fixed tumors and organs were embedded in paraplast (Oxford Labware, St. Louis, Mo.), cut in 6 μm thick sections, and stained with hematoxylin and eosin (HE) for histopathological examination.

Data set [6] relates to Akt. As to the kind of experiment: Western blotting, Akt phosphorylation. The data set is classed as cell-based, human. The conditions noted are these: MG-63 cells. How it is done: as §1
For data set [7], the system named is MG-63 cells. Kind of data set: Morphological changes (crystal violet staining), MG-63. The data set is classed as cell-based, human. As to the method:
FIG. 2. (A) Graphical representation of the effect of CuB on MG-63 and SAOS-2 cells. Cells were exposed to CuB at their ED50 (70 nM for MG-63 and 50 nM for SAOS-2 cells). Time-dependent antiproliferative activity of CuB on MG-63 and SAOS-2 cells measured by pulse-exposure experiments. Cells were exposed to CuB for 2, 9, or 20 hours, washed extensively, and cultured in the absence of CuB for an additional 24, 48, and 72 hours. Cell growth was measured by MTT assay. Measurements were repeated in triplicates. Data represent mean±SD. Asterisks (**) represent p<0.001 vs DMSO control by t-test. (B) Morphological changes of MG-63 and SAOS-2 cells after exposure to cucurbitacin B. Cells with normal morphology (top) were compared to rounded cells (middle) and multinucleated cells (bottom). […] Representative cells are shown. 400×; scale bar=50 μm. (C) Graphical representation of G2/M cell cycle arrest after 20 hours of exposure to cucurbitacin B. Cells were stained with propidium iodide (PI) and analyzed by FACS. (D) Graphical representation of apoptosis after 72 hours of exposure to cucurbitacin B. Cells were stained with PI and Annexin V-FITC, and analyzed by FACS.

The subject of data set [8] is ERK. As to the kind of experiment: Western blotting, ERK phosphorylation. The data set is classed as cell-based, human. To be noted: MG-63 and SAOS-2 cells. As to the method: as §1
Data set [9] addresses mTOR (Homo sapiens, UniProt P42345). Kind of data set: Western blotting, mTOR phosphorylation. The conditions noted are these: MG-63 and SAOS-2 cells; at ED50, 2, 9, or 20 hours. The data set is classed as cell-based. Further details: endogenous in cells; host or cells: MG-63 and SAOS-2 cells. How it is done: as §1
In data set [10] the test system is clonogenic hematopoietic cells. As to the kind of experiment: Colony-forming cell (CFC) assays of bone marrow. To be noted: day 35, 2 × 10^4 cells/well.
Experimental: Whole blood samples were obtained by submandibular bleeding and serum samples were harvested with serum separator tubes (BD Biosciences). Blood count and serum chemistry results were obtained by the Hemagen Analyst Benchtop Chemistry System (Hemagen Diagnostics, Inc. Columbia, Md.). Colony-forming cell (CFC) assays were performed as previously described (18).

Each structure is given as a SMILES string.

For `CC(=O)OC(C)(C)/C=C/C(=O)[C@](C)(O)[C@H]1[C@H](O)C[C@@]2(C)[C@@H]3CC=C4[C@H](C[C@H](O)C(=O)C4(C)C)[C@]3(C)C(=O)C[C@]12C` [CuB, cucurbitacin B], the “protein levels of cyclin A and p21^WAF1” value in data set [1] is “increased the protein levels of cyclin A and cyclin-dependent kinase inhibitor 1 (p21^WAF1) in both cells”. In [2], this compound showed an apoptotic cells of 44%. The initial weight loss result in [3] (HD-CuB 1.0 mg/kg) is “up to 5%”. For the same compound, the initial weight loss result in [3] (LD-CuB 0.5 mg/kg) was “up to 5%”. For the same compound, the “protection of ERK protein (DARTS)” value in data set [4] is listed as “could not find any evidence that the ERK protein was protected by CuB”. In data set [5] (HD-CuB 1.0 mg/kg), this compound registered a Kidney organ weight of 370 ± 1 mg, a Liver organ weight of 1260 ± 141 mg and a Spleen organ weight of 110 ± 1 mg. Besides, in data set [5] (LD-CuB 0.5 mg/kg), the Kidney organ weight was 360 ± 1 mg, the Liver organ weight was 1250 ± 60 mg and the Spleen organ weight worked out at 117 ± 6 mg. Moreover, the “Akt phosphorylation at S473” value in [6] is recorded as “Inhibition of Akt phosphorylation at S473 was observed in MG-63 cells”. Besides, the morphological changes result in [7] (2 hour exposure) is “Rapid loss of pseudopodia and rounding”. In addition, the morphological changes entry in [7] (9 hour-exposure) is recorded as “multinuclearity which was not reversed by CuB removal”. Moreover, in data set [8], the ERK phosphorylation result is recorded as “inhibited ERK phosphorylation without changing the total levels of ERK in both cells”. Also, the “mTOR phosphorylation at S2448 and S2481” value in data set [9] is “inhibition of mTOR phosphorylation at S2448 and S2481 without affecting the total level of mTOR”. In data set [10] (HD-CuB 1.0 mg/kg), the “BFU-E, number of colonies” value is 8.3 ± 1.6; the “CFU-GEMM, number of colonies” value came to 3.8 ± 0.8; the “CFU-GM, number of colonies” value is on record as 64.6 ± 4.6. Besides, in data set [10] (LD-CuB 0.5 mg/kg), the “BFU-E, number of colonies” value is 9.7 ± 1.4; the “CFU-GEMM, number of colonies” value came to 4.2 ± 0.8; the “CFU-GM, number of colonies” value came to 69.8 ± 3.0.
